{"source": "patent US5434141A", "about": "“Medicament for the treatment of hyperlipidaemia and/or atherosclerosis” (Steigerwald Arzneimittelwerk GmbH, priority 1990, dated 1995)", "key": {"[1]": {"test": "Experiment 1: serum cholesterol and lipid concentration in hamsters fed a lipidaemia diet, 4 weeks", "type": "in vivo, male golden hamsters", "conditions": "for hypocholesterolaemic / lipid-lowering action, in words: serum", "protocol": "(§1) 3 Groups each of 20 male golden hamsters were fed for 4 weeks with a lipidaemia diet (hamster maintenance diet and 2% cholesterol).\n(§2) The dose taken was between 4 and 5 g/kg of body weight and day.\n(§3) After 4 weeks the animals were sacrificed and the serum and hepatic lipid concentration was measured. The results of the analyses are compiled in Tables 1, 2 and 3."}, "[2]": {"test": "Experiment 1: hepatic lipid concentration in hamsters fed a lipidaemia diet, 4 weeks", "type": "in vivo, male golden hamsters", "conditions": "four weeks", "protocol": "as §1, §2, §3"}, "[3]": {"test": "Tolerability / toxic effects (general statement)", "conditions": "in vivo"}, "[4]": {"conditions": "by contrast with pectin; cited from earlier work"}, "[5]": {"conditions": "in vivo; cited from earlier work"}, "[6]": {"protocol": "(§4) 3 Groups each of 20 male golden hamsters were fed for 4 weeks with a lipidaemia diet (hamster maintenance diet and 2% cholesterol). The feed in the two treated groups was additionally supplemented with in each case 5% galacturonic acid or DEAE-polygalacturonic acid (DEAE=diethylaminoethyl).\n(§5) 3 Groups each of 20 male golden hamsters were treated for 4 weeks like the animals described in 1. […] Group 1 was the lipidaemia control."}, "[7]": {"test": "Experiment 2: hepatic lipid concentration in hamsters fed a lipidaemia diet, 4 weeks", "type": "in vivo, male golden hamsters", "conditions": "four weeks", "protocol": "as §4, §5"}, "[8]": {"conditions": "mean, n = 20/group, 5% in feed, four weeks"}, "[9]": {"conditions": "mean, n = 20/group, 5% in feed, four weeks, * p ≤ 0.05"}, "[10]": {"conditions": "significant, p≤0.05, four weeks"}, "[11]": {"conditions": "mean, n = 20/group, 5% in feed, * p ≤ 0.05"}}, "note": "“Also recorded” adds a separate entry of the source. Read-outs that look alike come from different tables or passages of the source."}
{"compound": "O=C(O)[C@H]1O[C@H](O)[C@H](O)[C@@H](O)[C@H]1O", "note": "[galacturonic acid, α-D-galacturonic acid]", "values": [{"measurement": "Free cholesterol in serum, D = difference from the control group", "setting": "[1]; 5% in feed, four weeks", "value": -19, "unit": "%"}, {"measurement": "HDL-cholesterol in serum, D = difference from the control group", "setting": "[1]; 5% in feed, four weeks", "value": -20, "unit": "%"}, {"measurement": "LDL-cholesterol in serum, D = difference from the control group", "setting": "[1]; 5% in feed, four weeks", "value": -23, "unit": "%"}, {"measurement": "Phospholipids in serum, D = difference from the control group", "setting": "[1]; 5% in feed, four weeks", "value": -17, "unit": "%"}, {"measurement": "Total cholesterol in serum, D = difference from the control group", "setting": "[1]; 5% in feed, four weeks", "value": -20, "unit": "%"}, {"measurement": "Total lipids in serum, D = difference from the control group", "setting": "[1]; 5% in feed, four weeks", "value": -18, "unit": "%"}, {"measurement": "Triglycerides in serum, D = difference from the control group", "setting": "[1]; 5% in feed, four weeks", "value": "+7%"}, {"measurement": "VLDL + LDL-cholesterol in serum, D = difference from the control group", "setting": "[1]; 5% in feed, four weeks", "value": -20, "unit": "%"}, {"measurement": "VLDL-cholesterol in serum, D = difference from the control group", "setting": "[1]; 5% in feed, four weeks", "value": -14, "unit": "%"}, {"measurement": "Phospholipids concentration in serum", "setting": "[1]; [8]", "value": 322, "unit": "mg/dL"}, {"measurement": "Total lipids concentration in serum", "setting": "[1]; [8]", "value": 1060, "unit": "mg/dL"}, {"measurement": "Triglycerides concentration in serum", "setting": "[1]; [8]", "value": 216, "unit": "mg/dL"}, {"measurement": "Free cholesterol concentration in serum", "setting": "[1]; [9]", "value": 96, "unit": "mg/dL"}, {"measurement": "HDL-cholesterol concentration in serum", "setting": "[1]; [9]", "value": 118, "unit": "mg/dL"}, {"measurement": "LDL-cholesterol concentration in serum", "setting": "[1]; [9]", "value": 117, "unit": "mg/dL"}, {"measurement": "Total cholesterol concentration in serum", "setting": "[1]; [9]", "value": 271, "unit": "mg/dL"}, {"measurement": "VLDL + LDL-cholesterol concentration in serum", "setting": "[1]; [9]", "value": 153, "unit": "mg/dL"}, {"measurement": "VLDL-cholesterol concentration in serum", "setting": "[1]; [9]", "value": 36, "unit": "mg/dL"}, {"measurement": "hypocholesterolaemic / lipid-lowering action, in words", "setting": "[1]", "value": "significant decrease in the cholesterol and lipid concentrations; also recorded: has a hypocholesterolaemic action"}, {"measurement": "hypocholesterolaemic / lipid-lowering action, in words", "setting": "[1]; listed as α-D-galacturonic acid", "value": "shows a hypocholesterolaemic action in the serum"}, {"measurement": "lowering of serum HDL-cholesterol", "setting": "[1]; significant, four weeks", "value": 20, "unit": "%"}, {"measurement": "lowering of serum LDL-cholesterol", "setting": "[1]; significant, four weeks", "value": 23, "unit": "%"}, {"measurement": "lowering of serum VLDL- plus LDL-cholesterol", "setting": "[1]; significant, four weeks", "value": 20, "unit": "%"}, {"measurement": "lowering of serum free cholesterol", "setting": "[1]; significant, four weeks", "value": 19, "unit": "%"}, {"measurement": "lowering of serum phospholipid concentration", "setting": "[1]; significant, four weeks", "value": 17, "unit": "%"}, {"measurement": "lowering of serum total lipid concentration", "setting": "[1]; significant, four weeks", "value": 18, "unit": "%"}, {"measurement": "lowering of serum concentration of total cholesterol", "setting": "[1]; [10]", "value": 20, "unit": "%"}, {"measurement": "Hepatic cholesterol, D = difference from the control group", "setting": "[2]; 5% in feed", "value": -9, "unit": "%"}, {"measurement": "Hepatic total lipids, D = difference from the control group", "setting": "[2]; 5% in feed", "value": -34, "unit": "%"}, {"measurement": "Hepatic cholesterol concentration", "setting": "[2]; [11]", "value": 27, "unit": "mg/g wet weight"}, {"measurement": "Hepatic total lipids concentration", "setting": "[2]; [11]", "value": 111, "unit": "mg/g wet weight"}, {"measurement": "reduction of total lipid concentration in the liver", "setting": "[2]; significant", "value": 34, "unit": "%"}, {"measurement": "tolerability", "setting": "[3]", "value": "as a rule well tolerated"}, {"measurement": "solubility in water", "setting": "[4]", "value": "readily soluble in water"}, {"measurement": "toxic effects", "setting": "[5]", "value": "No toxic effects are known"}]}
{"compound": "polygalacturonic acid", "values": [{"measurement": "Free cholesterol in serum, D = difference from the control group", "setting": "[6]; 5% in feed, four weeks", "value": -32, "unit": "%"}, {"measurement": "HDL-cholesterol in serum, D = difference from the control group", "setting": "[6]; 5% in feed, four weeks", "value": -15, "unit": "%"}, {"measurement": "LDL-cholesterol in serum, D = difference from the control group", "setting": "[6]; 5% in feed, four weeks", "value": -18, "unit": "%"}, {"measurement": "Phospholipids in serum, D = difference from the control group", "setting": "[6]; 5% in feed, four weeks", "value": -19, "unit": "%"}, {"measurement": "Total cholesterol in serum, D = difference from the control group", "setting": "[6]; 5% in feed, four weeks", "value": -13, "unit": "%"}, {"measurement": "Total lipids in serum, D = difference from the control group", "setting": "[6]; 5% in feed, four weeks", "value": -14, "unit": "%"}, {"measurement": "VLDL + LDL-cholesterol in serum, D = difference from the control group", "setting": "[6]; 5% in feed, four weeks", "value": -8, "unit": "%"}, {"measurement": "VLDL-cholesterol in serum, D = difference from the control group", "setting": "[6]; 5% in feed, four weeks", "value": -4, "unit": "%"}, {"measurement": "Phospholipids concentration in serum", "setting": "[6]; [8]", "value": 385, "unit": "mg/dL"}, {"measurement": "Total lipids concentration in serum", "setting": "[6]; [8]", "value": 1338, "unit": "mg/dL"}, {"measurement": "Triglycerides concentration in serum", "setting": "[6]; [8]", "value": 269, "unit": "mg/dL"}, {"measurement": "Free cholesterol concentration in serum", "setting": "[6]; [9]", "value": 80, "unit": "mg/dL"}, {"measurement": "HDL-cholesterol concentration in serum", "setting": "[6]; [9]", "value": 149, "unit": "mg/dL"}, {"measurement": "LDL-cholesterol concentration in serum", "setting": "[6]; [9]", "value": 163, "unit": "mg/dL"}, {"measurement": "Total cholesterol concentration in serum", "setting": "[6]; [9]", "value": 361, "unit": "mg/dL"}, {"measurement": "VLDL + LDL-cholesterol concentration in serum", "setting": "[6]; [9]", "value": 212, "unit": "mg/dL"}, {"measurement": "VLDL-cholesterol concentration in serum", "setting": "[6]; [9]", "value": 48, "unit": "mg/dL"}, {"measurement": "lowering of serum phospholipid concentration", "setting": "[6]; significant, four weeks", "value": 19, "unit": "%"}, {"measurement": "lowering of serum total lipid concentration", "setting": "[6]; significant, four weeks", "value": 14, "unit": "%"}, {"measurement": "lowering of serum HDL-cholesterol", "setting": "[6]; [10]", "value": 15, "unit": "%"}, {"measurement": "lowering of serum free cholesterol", "setting": "[6]; [10]", "value": 32, "unit": "%"}, {"measurement": "lowering of serum total cholesterol", "setting": "[6]; [10]", "value": 13, "unit": "%"}, {"measurement": "Hepatic cholesterol, D = difference from the control group", "setting": "[7]; 5% in feed", "value": -26, "unit": "%"}, {"measurement": "Hepatic total lipids, D = difference from the control group", "setting": "[7]; 5% in feed", "value": -25, "unit": "%"}, {"measurement": "Hepatic cholesterol concentration", "setting": "[7]; [11]", "value": 22.1, "unit": "mg/g wet weight"}, {"measurement": "Hepatic total lipids concentration", "setting": "[7]; [11]", "value": 67.4, "unit": "mg/g wet weight"}, {"measurement": "lowering of hepatic cholesterol concentration", "setting": "[7]; significant", "value": 26, "unit": "%"}, {"measurement": "lowering of hepatic total lipid concentration", "setting": "[7]; significant", "value": 25, "unit": "%"}]}
